The values that follow come from patent US12084680B2, “Methods for efficient derivation of human motor neurons from diverse spinal regions” (Wisconsin Alumni Research Foundation, priority 2016, dated 2024).

Some results are limits rather than exact numbers.

The subject of one test is H9 hESCs. As to the kind of experiment: Induction of NKX6.1+/PAX6+/OLIG2+ motor neuron progenitors from cervical neuromesoderm (flow cytometry, immunocytochemistry). Format: cell-based, human. Here is the method:
(§1) To begin, we sequentially differentiated H9 hESCs in E6 media for 1 day, and FGF8b (200 ng/mL) for 1 day, and FGF8b and CHIR (3 μM) for 2 days to generate cervical neuromesoderm (FIGS. 5A-5B). Then, we screened the effects of CHIR, PM, and SHH treatment on NKX6.1^+/PAX6^+/OLIG2^+ motor neuron progenitor induction while transitioning to media containing 1 μM RA (FIGS. 5A-5D). Prior to the addition of RA, NKX6.1 was expressed in the cervical neuromesodermal state at day 4 (80±18% NKX6.1^+; data not shown), likely due to the CHIR-induced Wnt/β-catenin signaling (FIGS. 4A-4H). Transitioning the neuromesodermal progenitors to RA-containing media for 2 days induced HOXB4^+/HOXC6^+/HOXC9^−/HOXD10^−/PAX6^+ cervical neuroectoderm in all conditions (FIGS. 5B-5C), as expected. However, without co-activation of SHH signaling by PM or SHH, NKX6.1 expression was quickly lost by day 6 (97±1% PAX6^+, 17±3% NKX6.1^+) (FIG. 5C). […] To bolster this claim, we also analyzed the abundance of full-length GLI3 versus its truncated repressor form by western blot. […] Thus, Wnt/β-catenin signaling is necessary to induce ventral identity, but its continuous activation during OLIG2 induction by SHH signaling is detrimental to motor neuron differentiation, possibly due to activation of the GLI3 repressor.
Next, we tested conditions where CHIR was removed after transitioning to media containing RA (1 μM), PM (2 μM), and SHH (2 μg/mL) (FIGS. 5A-5C).
Since NKX6.1 is a pre-requisite to OLIG2 expression, we hypothesized that the Wnt/β-catenin signaling-dependent NKX6.1 expression levels may still be too low for efficient OLIG2^+ motor neuron progenitor induction. Therefore, the concentration of CHIR was boosted to 6 or 9 μM for 6 h immediately prior to transitioning to E6 medium containing RA, PM, and SHH without CHIR (FIG. 5A). The 9 μM CHIR boost followed by a transition to media containing 1 μM RA, 2 μM PM, and 2 μg/mL SHH yielded optimal motor neuron progenitor cultures with highly uniform NKX6.1, OLIG2, and PAX6 expression (96±1%, 85±9%, and 97±2%, respectively) (FIGS. 5C-5D).
hESCs were dissociated with accutase (Thermo Fisher Scientific) and reseeded at 1×10^5 cells/cm2 in E8 medium containing 10 μM ROCK inhibitor (Y27632; R&D Systems) on 6-well polystyrene tissue culture plates coated with 100 μg/mL poly-L-ornithine (PLO; Sigma) and 8 μg/well VTN-NC. The timelines and relevant growth factors/small molecules for all differentiation procedures are described in detail in the Results section and its accompanying figures. Cells were differentiated for various amounts of time in E6 medium containing the same insulin concentration as E8 medium as described above with varying combinations of soluble factors (product information and concentration ranges are found in Table 2). For neuromesodermal induction and HOX propagation, cells were sequentially cultured with FGF8b, CHIR99021 (CHIR), GDF11, and dorsomorphin (DM) as previously described. Briefly, to initiate the neuromesodermal state, cells were changed to E6 medium followed by addition of FGF8b (200 ng/ml) 24 h later. To generate cervical neuromesodermal progenitors, cells were washed with PBS, treated with accutase, and re-seeded in E6 medium containing 200 ng/ml FGF8b, 3 μM CHIR, and 10 μM Y27632 on VTN-NC-coated plates at a density of 1.5×10^5 cells/cm^2 for 48 h. To generate thoracic neuromesodermal progenitors, cells were passaged again after 72 h of CHIR treatment and re-seeded at different densities as described in the text.
(§2) Thoracic identity was reached after an additional 24 h. Then, to reach the lumbosacral level, cells were given 30 ng/ml GDF11 and 1 μM DM for an additional 48 h. For neuroectoderm induction and generation of OLIG2^+ progenitors, FGF8b was removed at the designated time points and the concentration of CHIR was increased for 6 h as described in the text, followed by a transition to media containing RA, PM, and SHH for a period of 48 h. […]
In general terms: Flow cytometry measures light scatter and fluorescence of single cells or particles in a stream.

The test system of another test is GLI1, GLI2, GLI3. As to the kind of experiment: qPCR of GLI transcription factors in day 6 cultures. As to conditions: 6 μM CHIR maintained during RA and PM/SHH exposure, day 6, versus 0 μM CHIR. Format: cell-based, human. As for the experimental part:
as §1, §2
In general terms: Quantitative PCR measures a nucleic acid by following its amplification.

[1] abbreviates: 9 μM CHIR boost 6 h, then 1 μM RA, 2 μM PM, 2 μg/mL SHH without CHIR, day 6.
Setting [2] is: CHIR continued at 3 μM with RA, PM 2 μM, SHH 2 μg/mL, day 6.
The mark [3] stands for this setting: CHIR continued at 6 μM with RA, PM, SHH, day 6.

Take `Cc1c[nH]c(-c2cnc(NCCNc3ccc(C#N)cn3)nc2-c2ccc(Cl)cc2Cl)n1` [CHIR, CHIR99021]: in the test with H9 hESCs (setting [1]), the NKX6.1 expression amounted to 96±1%, the OLIG2 expression turned out to be 85±9% and the PAX6 expression came to 97±2%. For the same molecule, in the test on H9 hESCs (setting [2]), the “NKX6.1 and PAX6/SOX2 neuroectoderm marker expression” value is given as “uniformly expressed”; the OLIG2 induction entry was “minimal OLIG2 was induced”. For the same molecule, in the test on H9 hESCs (setting [3]), the OLIG2 induction result was “OLIG2 was still not induced”, the PAX6 expression result is on record as “PAX6 expression was diminished” and the PAX7 detection entry was “no PAX7 was detected”. Moreover, the “NKX6.1+ cells in cervical neuromesodermal state” value with H9 hESCs (FGF8b 200 ng/mL and CHIR 3 μM for 2 days, day 4, before RA) is 80±18%. In the test with GLI1, GLI2, GLI3, the “decrease in GLI1 expression (qPCR)” value was above 8 fold, the “decrease in GLI2 expression (qPCR)” value is reported as above 4 fold and the “increase in GLI3 expression (qPCR)” value is given as around 2 fold.
